Where a SMILES comes first, the peptide text is derived from it. [ ]: non-standard residue; d: D form. 2Nal = N[C@@H](Cc1ccc2ccccc2c1)C(=O)O; Pen = CC(C)(S)[C@H](N)C(=O)O; αMeK = C[C@](N)(CCCCN)C(=O)O
Assays:
[1] = Half life in simulated gastric fluid at 20 uM by LC-MS/MS analysis; format: ADME
[2] = Half life in simulated intestinal fluid at 20 uM by LC-MS/MS analysis; format: ADME
Interleukin-23 receptor [3] = target: T1, Interleukin-23 receptor (Homo sapiens, UniProt Q5VWK5); assay: Inhibition of interleukin-23 binding to human interleukin-23 receptor incubated for 2 hrs by competitive binding ELISA
T1 sequence (Q5VWK5 whole entry): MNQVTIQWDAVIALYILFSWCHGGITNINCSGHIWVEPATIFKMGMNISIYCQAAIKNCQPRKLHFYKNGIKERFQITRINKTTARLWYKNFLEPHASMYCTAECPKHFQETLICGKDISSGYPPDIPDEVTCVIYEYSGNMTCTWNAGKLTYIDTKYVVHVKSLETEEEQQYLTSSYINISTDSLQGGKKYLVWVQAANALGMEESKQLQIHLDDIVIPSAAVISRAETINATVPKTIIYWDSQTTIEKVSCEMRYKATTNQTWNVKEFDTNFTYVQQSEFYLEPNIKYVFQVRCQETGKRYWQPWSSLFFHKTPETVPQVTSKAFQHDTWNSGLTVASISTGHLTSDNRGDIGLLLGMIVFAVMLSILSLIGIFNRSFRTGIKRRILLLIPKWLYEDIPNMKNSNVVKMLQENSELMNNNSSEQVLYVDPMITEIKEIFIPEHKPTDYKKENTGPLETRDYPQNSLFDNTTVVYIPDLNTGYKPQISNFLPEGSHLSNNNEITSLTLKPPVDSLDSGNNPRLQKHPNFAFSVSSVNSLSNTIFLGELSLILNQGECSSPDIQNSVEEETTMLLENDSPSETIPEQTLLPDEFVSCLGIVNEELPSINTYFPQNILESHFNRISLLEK

Interleukin-23 receptor [4] = target: T1, Interleukin-23 receptor; assay: Inhibition of interleukin-23 receptor in human DB cells assessed as reduction in IL-23-stimulated STAT3 phosphorylation incubated for 30 mins by HTRF assay; format: cell-based
[5] = Inhibition of interleukin-23 binding to rat interleukin-23 receptor incubated for 2 hrs by competitive binding ELISA

SMILES	half-life at 20 µM [1] [h]	half-life at 20 µM [2] [h]	IC50 (Interleukin-23 receptor [3]) [µM]	IC50 (Interleukin-23 receptor [4]) [µM]	IC50 [5] [µM]
CC(=O)NCCCC[C@H](NC(=O)[C@](C)(CC(C)C)NC(=O)[C@H](Cc1ccc2ccccc2c1)NC(=O)[C@H](Cc1ccc(C(N)=O)cc1)NC(=O)[C@@H](NC(=O)[C@H](CCC(N)=O)NC(=O)[C@H](Cc1c[nH]c2ccccc12)NC(=O)[C@@H](NC(=O)[C@H](CC(N)=O)NC(=O)[C@@H](NC(C)=O)C(C)(C)S)[C@@H](C)O)C(C)(C)S)C(=O)N[C@@H](CC(N)=O)C(=O)N[C@@H](CC(N)=O)C(N)=O	> 6	> 6	–	–	–
COc1ccc(C[C@H](NC(=O)[C@@H](NC(=O)[C@H](CCC(N)=O)NC(=O)[C@H](Cc2c[nH]c3ccccc23)NC(=O)[C@@H](NC(=O)[C@H](CC(N)=O)NC(=O)[C@@H](NC(C)=O)C(C)(C)S)[C@@H](C)O)C(C)(C)S)C(=O)N[C@@H](Cc2ccc3ccccc3c2)C(=O)N[C@@](C)(CC(C)C)C(=O)N[C@@H](CCCCNC(C)=O)C(=O)N[C@@H](CC(N)=O)C(=O)N[C@@H](CC(N)=O)C(N)=O)cc1	> 6	> 6	–	–	–
CC(=O)N[C@@H](CCCNC(=N)N)C(=O)N[C@H]1CCSC[C@@H](C(=O)N[C@@H](Cc2ccc(OCCN)cc2)C(=O)N[C@@H](Cc2ccc3ccccc3c2)C(=O)N[C@@](C)(CCCCN)C(=O)N[C@@H](CCC(=O)O)C(=O)N[C@@H](CC(N)=O)C(=O)N[C@@H](CC(N)=O)C(N)=O)NC(=O)[C@H](CCC(N)=O)NC(=O)[C@H](Cc2c[nH]c3ccccc23)NC(=O)[C@H]([C@@H](C)O)NC(=O)[C@H](CCC(N)=O)NC1=O	2 to 3	< 1	–	–	–
COc1ccc(C[C@H](NC(=O)[C@@H]2CSCC[C@H](NC(C)=O)C(=O)N[C@@H](CCC(N)=O)C(=O)N[C@@H]([C@@H](C)O)C(=O)N[C@@H](Cc3c[nH]c4ccccc34)C(=O)N[C@@H](CCC(N)=O)C(=O)N2)C(=O)N[C@@H](Cc2ccc3ccccc3c2)C(=O)NC(C)(C)C(=O)N[C@@H](CCCCNC(C)=O)C(=O)N[C@@H](CC(N)=O)C(=O)NCC(N)=O)cc1	–	> 6	0.01 to 0.025	< 0.01	0.025 to 0.1
CC(=O)N[C@H](C(=O)N[C@@H](CCC(N)=O)C(=O)N[C@H](C(=O)N[C@@H](Cc1c[nH]c2ccccc12)C(=O)N[C@@H](CCC(N)=O)C(=O)N[C@H](C(=O)N[C@@H](Cc1ccc(O)cc1)C(=O)N[C@@H](Cc1c[nH]c2ccccc12)C(=O)N[C@@](C)(CCCN)C(=O)N[C@@H](CCC(=O)O)C(=O)N[C@@H](CC(N)=O)C(=O)NCC(N)=O)C(C)(C)S)[C@@H](C)O)C(C)(C)S	–	3 to 6	0.1 to 1	0.025 to 0.1	0.1 to 1
COc1ccc(C[C@H](NC(=O)[C@@H]2CSCC[C@H](NC(C)=O)C(=O)N[C@@H](CCC(N)=O)C(=O)N[C@@H]([C@@H](C)O)C(=O)N[C@@H](Cc3c[nH]c4ccccc34)C(=O)N[C@@H](CCC(N)=O)C(=O)N2)C(=O)N[C@@H](Cc2ccc3ccccc3c2)C(=O)N[C@H](CC(N)=O)C(=O)N[C@@H](CCCCNC(C)=O)C(=O)N[C@@H](CC(N)=O)C(=O)NCC(N)=O)cc1	–	> 6	0.025 to 0.1	0.025 to 0.1	0.1 to 1
CC(=O)NCCCC[C@H](NC(=O)C(C)(C)NC(=O)[C@H](Cc1ccc2ccccc2c1)NC(=O)[C@H](Cc1ccc(OCCN)cc1)NC(=O)[C@@H](NC(=O)[C@H](CCC(N)=O)NC(=O)[C@H](Cc1c[nH]c2ccccc12)NC(=O)[C@@H](NC(=O)[C@H](CC(N)=O)NC(=O)[C@@H](NC(=O)[C@@H](Cc1ccccc1)NC(C)=O)C(C)(C)S)[C@@H](C)O)C(C)(C)S)C(=O)N[C@@H](CC(N)=O)C(=O)NCCC(N)=O	3 to 6	> 6	–	–	–
CC(=O)NCCCC[C@H](NC(=O)[C@H](CCC(C)C)NC(=O)[C@H](Cc1ccc2ccccc2c1)NC(=O)[C@H](Cc1ccc(OCCN)cc1)NC(=O)[C@@H]1CSCC[C@H](NC(C)=O)C(=O)N[C@@H](CCC(N)=O)C(=O)N[C@@H]([C@@H](C)O)C(=O)N[C@@H](Cc2c[nH]c3ccccc23)C(=O)N[C@@H](CCC(N)=O)C(=O)N1)C(=O)N[C@@H](CC(N)=O)C(=O)NCCC(N)=O	–	< 1	< 0.01	< 0.01	< 0.01
COc1ccc(C[C@H](NC(=O)[C@@H](NC(=O)[C@H](CCC(N)=O)NC(=O)[C@H](Cc2c[nH]c3ccccc23)NC(=O)[C@@H](NC(=O)[C@H](CCC(N)=O)NC(=O)[C@@H](NC(C)=O)C(C)(C)S)[C@@H](C)O)C(C)(C)S)C(=O)N[C@@H](Cc2cccc3ccccc23)C(=O)N[C@@](C)(CCCCN)C(=O)N[C@@H](CCCCNC(C)=O)C(=O)N[C@@H](CC(N)=O)C(=O)NCC(N)=O)cc1	–	> 6	0.025 to 0.1	0.025 to 0.1	0.1 to 1
CC(=O)N[C@H](C(=O)N[C@@H](CCC(N)=O)C(=O)N[C@H](C(=O)N[C@@H](Cc1c[nH]c2ccccc12)C(=O)N[C@@H](CCC(N)=O)C(=O)N[C@H](C(=O)N[C@@H](Cc1ccc2ccccc2c1)C(=O)N[C@@H](Cc1ccc2ccccc2c1)C(=O)N[C@@](C)(CCCCN)C(=O)N[C@@H](CCC(=O)O)C(=O)N[C@@H](CC(N)=O)C(=O)NCC(N)=O)C(C)(C)S)[C@@H](C)O)C(C)(C)S (Ac-[Pen]QTWQ[Pen][2Nal][2Nal][αMeK]ENG-NH2)	–	3 to 6	0.1 to 1	0.01 to 0.025	0.1 to 1
COc1ccc(C[C@H](NC(=O)[C@@H](NC(=O)[C@H](CCC(N)=O)NC(=O)[C@H](Cc2c[nH]c3ccccc23)NC(=O)[C@@H](NC(=O)[C@H](CCC(N)=O)NC(=O)[C@@H](NC(C)=O)C(C)(C)S)[C@@H](C)O)C(C)(C)S)C(=O)N[C@@H](Cc2c[nH]c3ccccc23)C(=O)N[C@@](C)(CCCCN)C(=O)N[C@@H](CCCCNC(C)=O)C(=O)N[C@@H](CC(N)=O)C(=O)NCC(N)=O)cc1	–	> 6	0.025 to 0.1	0.01 to 0.025	0.025 to 0.1
CC(=O)NCCCC[C@H](NC(=O)[C@](C)(CCCN)NC(=O)[C@H](Cc1ccc2ccccc2c1)NC(=O)[C@H](Cc1ccc2ccccc2c1)NC(=O)[C@@H]1CSCC[C@H](NC(C)=O)C(=O)N[C@@H](CCC(N)=O)C(=O)N[C@@H]([C@@H](C)O)C(=O)N[C@@H](Cc2c[nH]c3ccccc23)C(=O)N[C@@H](CCC(N)=O)C(=O)N1)C(=O)N[C@@H](CC(N)=O)C(=O)NCC(N)=O	–	2 to 3	0.025 to 0.1	< 0.01	0.1 to 1
CC(=O)N[C@H]1CCSC[C@@H](C(=O)N[C@@H](Cc2ccc(O)cc2)C(=O)N[C@@H](Cc2c[nH]c3ccccc23)C(=O)N[C@@H](CCCNC(=N)N)C(=O)N[C@@H](CCC(=O)O)C(=O)N[C@@H](CC(N)=O)C(=O)NCC(=O)NCCOCC(=O)N[C@H](CCCCN)C(N)=O)NC(=O)[C@H](CCC(N)=O)NC(=O)[C@H](Cc2c[nH]c3ccccc23)NC(=O)[C@H]([C@@H](C)O)NC(=O)[C@H](CCC(N)=O)NC1=O	–	< 1	0.1 to 1	0.025 to 0.1	0.1 to 1
CC(=O)N[C@H](C(=O)N[C@@H](CCC(N)=O)C(=O)N[C@H](C(=O)N[C@@H](Cc1c[nH]c2ccccc12)C(=O)N[C@@H](CCC(N)=O)C(=O)N[C@H](C(=O)N[C@@H](Cc1ccc(O)cc1)C(=O)N[C@@H](Cc1cccc2ccccc12)C(=O)N[C@@](C)(CCCN)C(=O)N[C@@H](CCC(=O)O)C(=O)N[C@@H](CC(N)=O)C(=O)NCC(N)=O)C(C)(C)S)[C@@H](C)O)C(C)(C)S	–	3 to 6	0.1 to 1	0.025 to 0.1	0.1 to 1
CC(=O)NCCCC[C@H](NC(=O)[C@](C)(CCCCN)NC(=O)[C@H](Cc1ccc2ccccc2c1)NC(=O)[C@H](Cc1ccc2ccccc2c1)NC(=O)[C@@H]1CSCC[C@H](NC(C)=O)C(=O)N[C@@H](CCC(N)=O)C(=O)N[C@@H]([C@@H](C)O)C(=O)N[C@@H](Cc2c[nH]c3ccccc23)C(=O)N[C@@H](CCC(N)=O)C(=O)N1)C(=O)N[C@@H](CC(N)=O)C(=O)NCC(N)=O	–	3 to 6	0.025 to 0.1	0.01 to 0.025	0.025 to 0.1
CC(=O)N[C@H](C(=O)N[C@@H](CCC(N)=O)C(=O)N[C@H](C(=O)N[C@@H](Cc1c[nH]c2ccccc12)C(=O)N[C@@H](CCC(N)=O)C(=O)N[C@H](C(=O)N[C@@H](Cc1ccc(O)cc1)C(=O)N[C@@H](Cc1ccc2ccccc2c1)C(=O)N[C@@](C)(CCCN)C(=O)N[C@@H](CCC(=O)O)C(=O)N[C@@H](CC(N)=O)C(=O)NCC(N)=O)C(C)(C)S)[C@@H](C)O)C(C)(C)S	–	3 to 6	0.025 to 0.1	0.01 to 0.025	0.1 to 1
CC(=O)NCCCC[C@H](NC(=O)[C@](C)(CCCN)NC(=O)[C@H](Cc1c[nH]c2ccccc12)NC(=O)[C@H](Cc1ccc(O)cc1)NC(=O)[C@@H]1CSCC[C@H](NC(C)=O)C(=O)N[C@@H](CCC(N)=O)C(=O)N[C@@H]([C@@H](C)O)C(=O)N[C@@H](Cc2c[nH]c3ccccc23)C(=O)N[C@@H](CCC(N)=O)C(=O)N1)C(=O)N[C@@H](CC(N)=O)C(=O)NCC(N)=O	–	3 to 6	0.025 to 0.1	0.01 to 0.025	0.025 to 0.1
